Laboratory results: the NIST ThermoML archive (doi:10.1016/j.jct.2016.07.020)
± gives the expanded uncertainty stated by the source.

Test: mn = molality of the nth substance listed, in mol/kg
Settings: 101.3 kPa, Liquid, Capillary tube (Ostwald / Ubbelohde) method

OC[C@H]1OC(O)C[C@@H](O)[C@@H]1O (stereo partly drawn) [2-deoxy-D-glucose] + O
viscosity [mPa·s]
Settings	m1 = 0.04	m1 = 0.06	m1 = 0.0797	m1 = 0.1001	m1 = 0.1201	m1 = 0.1399
288.15 K	1.161 ± 0.041	1.171 ± 0.041	1.18 ± 0.041	1.191 ± 0.041	1.201 ± 0.041	1.213 ± 0.041
298.15 K	0.907 ± 0.04	0.913 ± 0.04	0.919 ± 0.04	0.928 ± 0.04	0.936 ± 0.041	0.945 ± 0.041
308.15 K	0.73 ± 0.04	0.736 ± 0.04	0.742 ± 0.04	0.749 ± 0.04	0.754 ± 0.04	0.761 ± 0.04
318.15 K	0.605 ± 0.04	0.609 ± 0.04	0.615 ± 0.04	0.619 ± 0.04	0.624 ± 0.04	0.629 ± 0.04

O=C[C@H](O)[C@@H](O)[C@@H](O)[C@H](O)CO [(+)-galactose] + O
viscosity [mPa·s]
Settings	m1 = 0.0402	m1 = 0.0601	m1 = 0.0792	m1 = 0.0992	m1 = 0.1199	m1 = 0.139	m1 = 0.1594	m1 = 0.1793
288.15 K	1.158 ± 0.041	1.168 ± 0.041	1.179 ± 0.041	1.19 ± 0.041	1.203 ± 0.041	1.214 ± 0.041	1.224 ± 0.041	1.237 ± 0.041
298.15 K	0.905 ± 0.041	0.913 ± 0.041	0.92 ± 0.041	0.929 ± 0.041	0.938 ± 0.041	0.945 ± 0.041	0.953 ± 0.041	0.961 ± 0.041
308.15 K	–	0.737 ± 0.04	0.743 ± 0.04	0.749 ± 0.04	0.755 ± 0.04	0.76 ± 0.04	0.766 ± 0.04	0.773 ± 0.04
318.15 K	0.606 ± 0.04	0.611 ± 0.04	0.615 ± 0.04	0.618 ± 0.04	0.624 ± 0.04	0.626 ± 0.04	0.631 ± 0.04	0.635 ± 0.04

O=C[C@H](O)[C@@H](O)[C@H](O)[C@H](O)CO [D-glucose] + O
viscosity [mPa·s]
Settings	m1 = 0.04	m1 = 0.0599	m1 = 0.0797	m1 = 0.0999	m1 = 0.1197	m1 = 0.14	m1 = 0.1598	m1 = 0.1797
288.15 K	1.161 ± 0.041	–	1.181 ± 0.041	1.193 ± 0.041	1.204 ± 0.041	1.216 ± 0.041	1.227 ± 0.041	1.241 ± 0.041
298.15 K	0.907 ± 0.04	0.915 ± 0.04	0.924 ± 0.04	0.932 ± 0.04	0.94 ± 0.041	0.947 ± 0.041	0.954 ± 0.041	0.961 ± 0.041
308.15 K	0.733 ± 0.04	0.737 ± 0.04	0.744 ± 0.04	0.751 ± 0.04	0.756 ± 0.04	0.762 ± 0.04	0.768 ± 0.04	0.774 ± 0.04
318.15 K	0.606 ± 0.04	0.61 ± 0.04	0.614 ± 0.04	0.62 ± 0.04	0.624 ± 0.04	0.629 ± 0.04	0.636 ± 0.04	0.64 ± 0.04

O=C[C@H](O)[C@@H](O)[C@H](O)CO [D-xylose] + O
viscosity [mPa·s]
Settings	m1 = 0.0399	m1 = 0.0601	m1 = 0.0797	m1 = 0.0993	m1 = 0.1195	m1 = 0.1391	m1 = 0.1583	m1 = 0.1783
288.15 K	1.155 ± 0.041	1.163 ± 0.041	1.173 ± 0.041	1.181 ± 0.041	1.188 ± 0.041	1.197 ± 0.041	1.206 ± 0.041	1.214 ± 0.041
298.15 K	0.901 ± 0.04	0.909 ± 0.04	0.914 ± 0.04	0.92 ± 0.04	0.927 ± 0.04	0.932 ± 0.04	0.937 ± 0.041	0.944 ± 0.041
308.15 K	0.727 ± 0.04	0.733 ± 0.04	0.739 ± 0.04	0.742 ± 0.04	0.747 ± 0.04	0.751 ± 0.04	0.756 ± 0.04	0.762 ± 0.04
318.15 K	0.603 ± 0.04	0.607 ± 0.04	0.61 ± 0.04	0.614 ± 0.04	0.618 ± 0.04	0.623 ± 0.04	0.626 ± 0.04	0.63 ± 0.04

O=C1O[C@H]([C@@H](O)CO)C(O)=C1O [L-ascorbic acid] + O
viscosity [mPa·s]
Settings	288.15 K	298.15 K	308.15 K	318.15 K
m1 = 0.05	1.163 ± 0.041	0.91 ± 0.04	0.732 ± 0.04	0.605 ± 0.04
m1 = 0.15	1.21 ± 0.041	0.944 ± 0.041	0.759 ± 0.04	0.625 ± 0.04
m1 = 0.25	1.257 ± 0.041	0.979 ± 0.041	0.787 ± 0.04	0.646 ± 0.04
m1 = 0.35	1.305 ± 0.041	1.017 ± 0.041	0.813 ± 0.04	0.669 ± 0.04

OC[C@@H](O)[C@H](O)[C@H](O)[C@@H](O)CO [dulcitol] + O
viscosity [mPa·s]
Settings	m1 = 0.04	m1 = 0.0603	m1 = 0.0797	m1 = 0.1002	m1 = 0.1196	m1 = 0.14	m1 = 0.1597	m1 = 0.1795
288.15 K	1.161 ± 0.041	1.172 ± 0.041	1.183 ± 0.041	1.191 ± 0.041	1.202 ± 0.041	1.213 ± 0.041	1.221 ± 0.041	1.229 ± 0.041
298.15 K	0.904 ± 0.04	0.912 ± 0.04	0.919 ± 0.04	0.926 ± 0.04	0.933 ± 0.04	0.939 ± 0.041	0.948 ± 0.041	0.953 ± 0.041
308.15 K	0.73 ± 0.04	0.736 ± 0.04	0.741 ± 0.04	0.746 ± 0.04	0.751 ± 0.04	0.756 ± 0.04	0.761 ± 0.04	0.766 ± 0.04
318.15 K	0.602 ± 0.04	0.607 ± 0.04	0.61 ± 0.04	0.614 ± 0.04	0.617 ± 0.04	0.623 ± 0.04	0.626 ± 0.04	0.628 ± 0.04

CO[C@H]1O[C@H](CO)[C@@H](O)[C@H](O)[C@H]1O [methyl-α-D-glucopyranoside] + O
viscosity [mPa·s]
Settings	m1 = 0.0397	m1 = 0.06	m1 = 0.08	m1 = 0.0999	m1 = 0.1191	m1 = 0.1402	m1 = 0.1599	m1 = 0.1801
288.15 K	1.159 ± 0.041	1.172 ± 0.041	1.183 ± 0.041	1.194 ± 0.041	1.206 ± 0.041	1.218 ± 0.041	1.23 ± 0.041	1.241 ± 0.041
298.15 K	0.906 ± 0.04	0.916 ± 0.04	0.925 ± 0.04	0.931 ± 0.04	0.94 ± 0.041	0.948 ± 0.041	0.956 ± 0.041	0.964 ± 0.041
308.15 K	0.732 ± 0.04	0.739 ± 0.04	0.745 ± 0.04	0.751 ± 0.04	0.757 ± 0.04	0.764 ± 0.04	0.77 ± 0.04	0.777 ± 0.04
318.15 K	0.606 ± 0.04	0.611 ± 0.04	0.616 ± 0.04	0.621 ± 0.04	0.625 ± 0.04	0.631 ± 0.04	0.636 ± 0.04	0.64 ± 0.04

OC[C@@H](O)[C@H](O)[C@@H](O)CO [xylitol] + O
viscosity [mPa·s]
Settings	m1 = 0.0399	m1 = 0.0599	m1 = 0.08	m1 = 0.0999	m1 = 0.1196	m1 = 0.1396	m1 = 0.1593	m1 = 0.1801
288.15 K	1.16 ± 0.041	1.17 ± 0.041	1.179 ± 0.041	1.188 ± 0.041	1.197 ± 0.041	1.206 ± 0.041	1.214 ± 0.041	1.223 ± 0.041
298.15 K	0.905 ± 0.04	0.913 ± 0.04	0.919 ± 0.04	0.926 ± 0.04	0.933 ± 0.04	0.939 ± 0.041	0.947 ± 0.041	0.954 ± 0.041
308.15 K	0.73 ± 0.04	0.736 ± 0.04	0.742 ± 0.04	0.746 ± 0.04	0.751 ± 0.04	0.757 ± 0.04	0.762 ± 0.04	0.766 ± 0.04
318.15 K	0.604 ± 0.04	0.608 ± 0.04	0.612 ± 0.04	0.616 ± 0.04	0.621 ± 0.04	0.625 ± 0.04	0.63 ± 0.04	0.634 ± 0.04
